From ChEMBL document CHEMBL1201862, “PubChem BioAssay data set” (2004)
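Tested at 5 concentrations; 48 h exposure; 96-well plates; endpoints linearly interpolated, else capped at highest concentration. GI50: concentration for 50% inhibition of growth.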 Calls of active or inactive are those of the source. Rule as the data show it: active = GI50 up to about 1.1 µM and inactive = higher.

Tests used:
Assay in all cases: NCI anticancer screen, dose series, 48 h
ACHN = system: ACHN
UO-31 = system: UO-31
SW-620 = system: SW-620
SK-MEL-5 = system: SK-MEL-5
HOP-62 = system: HOP-62
NCI-H460 = system: NCI-H460
OVCAR-5 = system: OVCAR-5
SF-295 = system: SF-295
OVCAR-3 = system: OVCAR-3
MOLT-4 = system: MOLT-4
IGROV-1 = system: IGROV-1
M19-MEL = system: M19-MEL
TK-10 = system: TK-10
NCI-H23 = system: NCI-H23
MDA-MB-231 = system: MDA-MB-231
SK-MEL-28 = system: SK-MEL-28
LXFL 529 = system: LXFL 529
HCC 2998 = system: HCC 2998
K562 = system: K562
MDA-MB-435 = system: MDA-MB-435
HCT-116 = system: HCT-116
DLD-1 = system: DLD-1
A549 = system: A549
HOP-92 = system: HOP-92
Malme-3M = system: Malme-3M
DMS-273 = system: DMS-273
EKVX = system: EKVX
KM-20L2 = system: KM-20L2
HOP-18 = system: HOP-18
SNB-78 = system: SNB-78
SNB-75 = system: SNB-75
SN12C = system: SN12C
CAKI-1 = system: CAKI-1
Hs-578T = system: Hs-578T
UACC-257 = system: UACC-257
T47D = system: T47D
A498 = system: A498
SK-MEL-2 = system: SK-MEL-2
HL-60 = system: HL-60
SF-539 = system: SF-539
NCI-H522 = system: NCI-H522
SNB-19 = system: SNB-19
MCF7 = system: MCF7
SK-OV-3 = system: SK-OV-3
UACC-62 = system: UACC-62
SF-268 = system: SF-268
SR = system: SR
DMS-114 = system: DMS-114
DU-145 = system: DU-145
U-251 = system: U-251
OVCAR-4 = system: OVCAR-4
HT-29 = system: HT-29
COLO 205 = system: COLO 205
CCRF-CEM = system: CCRF-CEM
PC-3 = system: PC-3
NCI/ADR-RES = system: NCI/ADR-RES
NCI-H226 = system: NCI-H226
KM12 = system: KM12
HCT-15 = system: HCT-15
OVCAR-8 = system: OVCAR-8
BT-549 = system: BT-549
RXF 393 = system: RXF 393
MDA-N = system: MDA-N
RPMI-8226 = system: RPMI-8226
786-0 = system: 786-0
M14 = system: M14
LOX IMVI = system: LOX IMVI
XF498 = system: XF498

For CN(C)c1ccc(/C=C/c2cc[n+](C)c3ccccc23)cc1, the GI50 (ACHN) was 6.43 µM (inactive), the GI50 (UO-31) was 23.8 µM (inactive) and the GI50 (SW-620) was 2.44 µM (inactive). For the same compound, the GI50 (SK-MEL-5) was 2.19 µM (inactive), the GI50 (HOP-62) was 4.63 µM (inactive) and the GI50 (NCI-H460) was 2.9 µM (inactive). The GI50 (OVCAR-5) was 6.43 µM (inactive), the GI50 (SF-295) was 3.84 µM (inactive) and the GI50 (OVCAR-3) was 1.77 µM (inactive). For the same compound, the GI50 (MOLT-4) was 3.4 µM (inactive), the GI50 (IGROV-1) was 5.16 µM (inactive) and the GI50 (M19-MEL) was 1.44 µM (inactive). For the same compound, the GI50 (TK-10) was 3.71 µM (inactive), the GI50 (NCI-H23) was 2.11 µM (inactive) and the GI50 (MDA-MB-231) was 5.94 µM (inactive). For the same compound, the GI50 (SK-MEL-28) was 5.32 µM (inactive), the GI50 (LXFL 529) was 1.23 µM (inactive) and the GI50 (HCC 2998) was 6.32 µM (inactive). The GI50 (K562) was 0.418 µM (active), the GI50 (MDA-MB-435) was 2.03 µM (inactive) and the GI50 (HCT-116) was 1.58 µM (inactive). For the same compound, the GI50 (DLD-1) was 2.68 µM (inactive), the GI50 (A549) was 3.86 µM (inactive) and the GI50 (HOP-92) was 2.96 µM (inactive). For the same compound, the GI50 (Malme-3M) was 4.51 µM (inactive), the GI50 (DMS-273) was 2.39 µM (inactive) and the GI50 (EKVX) was 34.7 µM (inactive). The GI50 (KM-20L2) was 3.04 µM (inactive), the GI50 (HOP-18) was 3.47 µM (inactive) and the GI50 (SNB-78) was 7.59 µM (inactive). The GI50 (SNB-75) was 3.45 µM (inactive), the GI50 (SN12C) was 3.44 µM (inactive) and the GI50 (CAKI-1) was 2.79 µM (inactive). For the same compound, the GI50 (Hs-578T) was 2.74 µM (inactive), the GI50 (UACC-257) was 1.2 µM (inactive) and the GI50 (T47D) was 0.652 µM (active). The GI50 (A498) was 15.1 µM (inactive), the GI50 (SK-MEL-2) was 2.27 µM (inactive) and the GI50 (HL-60) was 0.748 µM (active). The GI50 (SF-539) was 5.56 µM (inactive), the GI50 (NCI-H522) was 1.98 µM (inactive) and the GI50 (SNB-19) was 2.34 µM (inactive). The GI50 (MCF7) was 2.29 µM (inactive), the GI50 (SK-OV-3) was 5.81 µM (inactive) and the GI50 (UACC-62) was 3.13 µM (inactive). For the same compound, the GI50 (SF-268) was 6.1 µM (inactive), the GI50 (SR) was 0.698 µM (active) and the GI50 (DMS-114) was 2.3 µM (inactive). The GI50 (DU-145) was 5.6 µM (inactive), the GI50 (U-251) was 2.75 µM (inactive) and the GI50 (OVCAR-4) was 5.05 µM (inactive). The GI50 (HT-29) was 2.04 µM (inactive), the GI50 (COLO 205) was 1.36 µM (inactive) and the GI50 (CCRF-CEM) was 1.9 µM (inactive). The GI50 (PC-3) was 1.73 µM (inactive), the GI50 (NCI/ADR-RES) was > 100 µM (inactive) and the GI50 (NCI-H226) was 2.53 µM (inactive). The GI50 (KM12) was 2.51 µM (inactive), the GI50 (HCT-15) was 29.9 µM and the GI50 (OVCAR-8) was 1.53 µM (inactive). The GI50 (BT-549) was 0.437 µM (active), the GI50 (RXF 393) was 7.1 µM (inactive) and the GI50 (MDA-N) was 2.27 µM (inactive). For the same compound, the GI50 (RPMI-8226) was 2.95 µM (inactive), the GI50 (786-0) was 4.27 µM (inactive) and the GI50 (M14) was 3.44 µM (inactive). For the same compound, the GI50 (LOX IMVI) was 3.48 µM (inactive).
With O=C1NC(c2ccc(O)cc2)C2CCC1C2 (centres undefined) the GI50 (ACHN) was > 100 µM (inactive), the GI50 (UO-31) was > 100 µM (inactive) and the GI50 (SW-620) was > 100 µM (inactive). For the same compound, the GI50 (SK-MEL-5) was > 100 µM (inactive), the GI50 (HOP-62) was > 100 µM (inactive) and the GI50 (NCI-H460) was > 100 µM (inactive). For the same compound, the GI50 (OVCAR-5) was > 100 µM (inactive), the GI50 (SF-295) was > 100 µM (inactive) and the GI50 (OVCAR-3) was > 100 µM (inactive). For the same compound, the GI50 (MOLT-4) was > 100 µM (inactive), the GI50 (IGROV-1) was > 100 µM (inactive) and the GI50 (M19-MEL) was > 100 µM (inactive). For the same compound, the GI50 (TK-10) was > 100 µM (inactive), the GI50 (NCI-H23) was > 100 µM (inactive) and the GI50 (SK-MEL-28) was > 100 µM (inactive). For the same compound, the GI50 (LXFL 529) was > 100 µM (inactive), the GI50 (HCC 2998) was > 100 µM (inactive) and the GI50 (XF498) was > 100 µM (inactive). For the same compound, the GI50 (K562) was > 100 µM (inactive), the GI50 (HCT-116) was > 100 µM (inactive) and the GI50 (DLD-1) was > 100 µM (inactive). For the same compound, the GI50 (A549) was > 100 µM (inactive), the GI50 (HOP-92) was > 100 µM (inactive) and the GI50 (Malme-3M) was > 100 µM (inactive). For the same compound, the GI50 (EKVX) was > 100 µM (inactive), the GI50 (KM-20L2) was > 100 µM (inactive) and the GI50 (SNB-78) was > 100 µM (inactive). For the same compound, the GI50 (SNB-75) was > 100 µM (inactive), the GI50 (SN12C) was > 100 µM (inactive) and the GI50 (CAKI-1) was > 100 µM (inactive). The GI50 (UACC-257) was > 100 µM (inactive), the GI50 (A498) was > 100 µM (inactive) and the GI50 (SK-MEL-2) was > 100 µM (inactive). The GI50 (HL-60) was > 100 µM (inactive), the GI50 (NCI-H522) was > 100 µM (inactive) and the GI50 (SNB-19) was > 100 µM (inactive). For the same compound, the GI50 (SK-OV-3) was > 100 µM (inactive), the GI50 (UACC-62) was > 100 µM (inactive) and the GI50 (SF-268) was > 100 µM (inactive). The GI50 (SR) was > 100 µM (inactive), the GI50 (DMS-114) was > 100 µM (inactive) and the GI50 (U-251) was > 100 µM (inactive). The GI50 (OVCAR-4) was > 100 µM (inactive), the GI50 (HT-29) was > 100 µM (inactive) and the GI50 (COLO 205) was > 100 µM (inactive). The GI50 (CCRF-CEM) was > 100 µM (inactive), the GI50 (NCI-H226) was > 100 µM (inactive) and the GI50 (KM12) was > 100 µM (inactive). The GI50 (OVCAR-8) was > 100 µM (inactive), the GI50 (RPMI-8226) was > 100 µM (inactive) and the GI50 (786-0) was > 100 µM (inactive). The GI50 (M14) was > 100 µM (inactive).
